Patent US20070037752A1, “Novel alanyl-amino peptidase inhibitors for functionally influencing different cells and treating immunological, inflammatory, neuronal, and other diseases” (priority 2003, published 2007)

Key:
[1] = tested on: female Balb/c mice; test: Dextran sulfate-induced colitis, disease score; format: in vivo; details: 10 μg single inhibitor i.p., three days from day 5, score on day 7; insignificant
Source text: Therapeutic Effect of the Combined Inhibition of the Alanyl Aminopeptidases and of Enzymes Having an Analogous Effect as Well as of Dipeptidyl Peptidase IV and of Enzymes Having an Analogous Effect on the Dextran Sulfate-Induced Colitis in Mice (Animal Model of Chronic Inflammatory Intestinal Diseases)
An inflammation relating predominantly to the colon (equivalent to the disease of human Colitis ulcerosa) was induced by an administration of 3% sodium dextran sulfate dissolved in the drinking water of female Balb/c mice having an age of 8 weeks. […] The peptidase inhibitors (or phosphate-buffered saline as a placebo) were administered intraperitoneally from day 5 on for three successive days. The degree of the disease was determined in accordance with an acknowledged evaluation system (score). The following parameters were considered when determining the score: Consistency of the excrements (solid=0 points (pts.); pasty=2 pts.; liquid/like diarrhea=4 pts.); detection of blood in the excrements (no blood=0 pts.; occult blood=2 pts.; evident=4 pts.); loss of weight (0-5%=0 pts.; 5 to 10%=1 pts.; 10-15%=2 pts.; 15-20%=3 pts.; >20%=4 pts.). Healthy animals have a score value of 0 pts.; the maximum value are 12 pts. From 10 pts. on, the disease is lethal. In the course of the disease, the score value increased due to the change of the excrement parameters. […]

[2] = tested on: female Balb/c mice; test: Ovalbumine-induced asthma bronchiale, pulmonal function (EF50) and eosinophilia; format: in vivo; details: i.p. 0.1 mg of each inhibitor, days 28-35; FIG. 3 A
Experimental: Therapeutic effect of the combined inhibition of alanyl aminopeptidases and of enzymes having an analogous effect as well as of dipeptidyl peptidase IV and of enzymes having an analogous effect on the ovalbumine-induced asthma bronchiale ib mice (animal model of human asthma bronchiale).
Female Balb/c mice were sensitized for the antigen ovalbumine capable of inducing asthma bronchiale by an intreperitoneal administration of 10 μg ovalbumine on the days 0, 14 and 21. On day 27/28, the animals received a boostering dose of ovalbumine by inhalation [vD3]. After an intreperitoneal administration of the peptidase inhibitors on the days 28-35, there was effected an intranasal ovalbumine challenge on day 35, as well as a check of the allergic premature reaction via the pulmonal function. There were measured: the average expiratory flux (EF50), the tidal volume, the respiration rate and the minute volume as well as the number of eosinophilic granulocytes in the bronchoalveolar lavage.
8 to 10 animals were used per experimental group. By way of example, in FIG. 3 A, there is summarized the effect of the peptidase inhibitors on the reduction of the EF50 value. […] Group E represents animals which were not sensitized by OVA, but which were subjected—beyond that—all procedures to which the animal groups A to D were subjected.

Compound: CCCCC[C@H](CC(=O)NO)C(=O)N[C@H](C(=O)N1CCC[C@H]1CO)C(C)C [Actinonine]
- reduction of the heaviness of the disease (colitis score) [1]: −16.5%
- effect on the reduction of the EF50 value (pulmonal function) [2]: showed a therapeutic effect

Compound: N[C@@H](CCCCNC(=O)OCc1ccc([N+](=O)[O-])cc1)C(=O)N1CCCC1 [Lys[Z(NO2)]pyrrolidide]
- reduction of the heaviness of the disease (colitis score) [1]: −12.3%
- effect on the reduction of the EF50 value (pulmonal function) [2]: showed a therapeutic effect
